Reference: ChEMBL document CHEMBL5223061, “Mechanisms and inhibitors of nicotinamide N-methyltransferase” (RSC Med Chem, 2021)

Assays:
[1] = target: T1, Nicotinamide N-methyltransferase (Homo sapiens) (UniProt P40261); test: Inhibition of recombinant human NNMT expressed in Escherichia coli BL21 (DE3) assessed as Kobs/[I] ratio and measured after 20 mins using nicotinamide as substrate and SAM as cofactor by MTase-Glo reagent based assay
T1 sequence (whole entry): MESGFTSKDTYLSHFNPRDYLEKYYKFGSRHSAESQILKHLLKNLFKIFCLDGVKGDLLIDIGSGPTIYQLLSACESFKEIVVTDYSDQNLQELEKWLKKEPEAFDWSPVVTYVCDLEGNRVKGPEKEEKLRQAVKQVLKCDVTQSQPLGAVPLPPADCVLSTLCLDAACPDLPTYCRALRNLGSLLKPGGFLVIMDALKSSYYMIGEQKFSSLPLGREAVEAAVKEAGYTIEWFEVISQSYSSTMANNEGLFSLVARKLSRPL

[2] = target: T1, Nicotinamide N-methyltransferase (Homo sapiens); test: Inhibition of NNMT (unknown origin) assessed as formation of MNA at 0.5 uM using nicotinamide as substrate and SAM as cofactor by fluorescence based assay
[3] = target: T1, Nicotinamide N-methyltransferase (Homo sapiens); test: Inhibition of human NNMT at 30 uM preincubated for 30 mins followed by substrate, cofactor addition and measured after 60 mins using nicotinamide as substrate and SAM as cofactor by fluorescence enzymatic assay; details: time 90.0 min
[4] = Inhibition of monkey NNMT preincubated for 30 mins followed by substrate, cofactor addition and measured after 60 mins using nicotinamide as substrate and SAM as cofactor by fluorescence enzymatic assay; parameters: species or system Macaca mulatta
[5] = substrate: NC(=O)c1cccnc1; test: Binding affinity to recombinant human NNMT expressed in Escherichia coli BL21 (DE3) assessed as Km preincubated for 10 mins followed by NAM addition and measured after 10 mins by Michaelis-Menten analysis; details: time 20.0 min
[6] = substrate: C[S+](CC[C@H](N)C(=O)[O-])C[C@H]1O[C@@H](n2cnc3c(N)ncnc32)[C@H](O)[C@@H]1O; test: Binding affinity to recombinant human NNMT expressed in Escherichia coli BL21 (DE3) assessed as Km preincubated for 10 mins followed by SAM addition and measured after 10 mins by Michaelis-Menten analysis; details: time 20.0 min

With `NC(=O)c1cnccc1Cl` as the molecule, how does the Ratio [1] read?
Its Ratio is 80 M⁻¹ min⁻¹.

For `Clc1ccncc1`, which Ratio [1] is on record?
The Ratio was 20 M⁻¹ min⁻¹.

With `C=C(C)[C@@]12O[C@@]3(/C=C/C=C/CCCCC)O[C@@H]1[C@@H]1[C@@H]4O[C@]4(CO)[C@@H](O)[C@]4(O)C(=O)C(C)=C[C@H]4[C@@]1(O3)[C@H](C)[C@H]2OC(C)=O` as the molecule, how does the inhibition [2] read?
Its inhibition is 50%.

Which inhibition [3] does the source give for `CNC(=O)c1ccc(OC)nc1` here?
Its inhibition is 20%.

Which IC50 [4] does the source give for `COc1ccc(C(N)=O)cn1` here?
The IC50 was 2800 nM.

B1: Nicotinamide N-methyltransferase (Homo sapiens), P40261 (protein)
chain: MESGFTSKDTYLSHFNPRDYLEKYYKFGSRHSAESQILKHLLKNLFKIFCLDGVKGDLLIDIGSGPTIYQLLSACESFKEIVVTDYSDQNLQELEKWLKKEPEAFDWSPVVTYVCDLEGNRVKGPEKEEKLRQAVKQVLKCDVTQSQPLGAVPLPPADCVLSTLCLDAACPDLPTYCRALRNLGSLLKPGGFLVIMDALKSSYYMIGEQKFSSLPLGREAVEAAVKEAGYTIEWFEVISQSYSSTMANNEGLFSLVARKLSRPL
Which Km [5] does the source give for B1 here?
The Km was 199 µM.

What about the Km [6] of the same molecule?
Its Km is 8.5 µM.
